These results are taken from ChEMBL document CHEMBL1201862, “PubChem BioAssay data set” (2004).

Active and inactive are the calls of the source.

Assay [1] has as its target T1, Tyrosine-protein phosphatase non-receptor type 7 (Homo sapiens, UniProt P35236).
T1 sequence (P35236 whole entry): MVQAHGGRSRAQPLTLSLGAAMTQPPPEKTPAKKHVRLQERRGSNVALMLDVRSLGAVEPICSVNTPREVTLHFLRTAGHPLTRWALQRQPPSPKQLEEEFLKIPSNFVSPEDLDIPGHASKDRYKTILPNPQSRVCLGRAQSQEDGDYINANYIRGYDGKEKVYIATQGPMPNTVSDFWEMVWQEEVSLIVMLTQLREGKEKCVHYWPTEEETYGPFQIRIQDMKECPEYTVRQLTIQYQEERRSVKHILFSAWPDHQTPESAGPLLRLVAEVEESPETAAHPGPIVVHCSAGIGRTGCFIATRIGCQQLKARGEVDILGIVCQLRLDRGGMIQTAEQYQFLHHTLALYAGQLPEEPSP
Type of assay: functional.

Assay [2] addresses Glyceraldehyde-3-phosphate dehydrogenase (Homo sapiens, UniProt P04406).
In assay [3] the target is T2, Dual specificity protein phosphatase 6 (Rattus norvegicus, UniProt Q64346).
In assay [4] the target is T2, Dual specificity protein phosphatase 6. It counts as functional.
The nature of assay [5]: decrease of insulin promoter-GFP reporter – imaging, high-content screening, mouse beta cells (AID 1628). It counts as functional. Conditions: MIN6.
A short description of assay [6]: MIN6 cell viability loss – mouse insulinoma, cytotoxicity control, dose response (AID 2122).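 Further: confirmatory high-throughput counterscreen run to flag cytotoxic compounds.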 It counts as functional.
Assay [7] in a line: Trypanosoma cruzi growth suppression in host cells – NIH3T3 host cells, beta-gal luminescence, confirmation (AID 2044).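 Further: intracellular parasites grown in NIH/3T3 mouse fibroblasts as host cells; luminescent beta-galactosidase reporter signal from transgenic T. cruzi replicating inside host cells; inhibitors lower the luminescence signal.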 Type of assay: functional, cell-based.
A short description of assay [8]: NIH3T3 cell viability loss – ATP luminescence, mouse fibroblasts, counter-screen, dose response (AID 2010).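 Further: cells exposed to compound for about 90 hours before reading.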 Type of assay: functional, cell-based.
Assay [9] can be described thus: Luminescence Cell-Based Dose Retest to Confirm Inhibitors of Cancer Stem Cells. [Related pubchem assays (depositor defined):AID2717, AID2721]. Type of assay: functional. Particulars: Homo sapiens.
Assay [10] is described as follows: viability loss of HMLE_sh_eGFP cells – cell-based, luminescence, counter-screen for HMLE_sh_ECad selective toxicity project, dose response (AID 463074).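 Further: HMLE human mammary epithelial cells expressing control shRNA against eGFP.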 It counts as functional, Homo sapiens. Background: The purpose of a counterscreen is to sort out artefacts and off-target activity.
Assay [11] has as its target Dual specificity tyrosine-phosphorylation-regulated kinase 1A (Rattus norvegicus, UniProt Q63470). It counts as biochemical, Homo sapiens.
Another assay concerns Escherichia coli. The assay is described as follows: microbe, parasite or virus in culture.
In another assay the target is ORF 73 (Human herpesvirus 8, UniProt O40947). The assay is described as follows: KSHV LANA DNA-binding disruption – biochemical, fluorescence polarization, cherry-picked samples, dose response (AID 504725).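 Further: fluorescence polarization of a labeled DNA duplex reporting LANA DNA binding; potency is for inhibitors that block LANA binding to the DNA.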 Also noted: species or system Human gammaherpesvirus 8.
Another assay concerns the target Keap1/Nrf2 (Homo sapiens, UniProt Q14145). The experiment in a line: disruptors of Keap1 binding to Nrf2 peptide – biochemical, fluorescence polarization, cherry-picked samples, dose response (AID 588683). (Polarisation of emitted light reports the rotation of a fluorescent probe.)
The subject of assay [12] is HEK293. The experiment in a line: cells. Particulars: Homo sapiens.
The subject of assay [13] is HEK293. The experiment in a line: cells. Particulars: Homo sapiens. This is another data set of the same source.
Assay [14] in a line: THP-1 cell cytotoxicity, dose response, cytotoxicity control for non-replicating M. tuberculosis project (AID 489025). It counts as functional.
Assay [15] can be described thus: HepG2 cell cytotoxicity, dose response, cytotoxicity control for non-replicating M. tuberculosis project (AID 489018). It counts as functional. Conditions: Mycobacterium tuberculosis.
A short description of assay [16]: NIH/3T3 cell viability loss – mouse embryonic fibroblasts, dry powder, set 2, cytotoxicity control, dose response (AID 493247). Type of assay: functional, cell-based. Conditions: Fibroblast.
The subject of another assay is Trypanosoma cruzi. The experiment in a line: anti-trypanosomal activity in host cells – cell-based, plate reader, dry powder, set 3, dose response (AID 493197). It counts as functional.
Assay [17] in a line: Vero E6 cell cytotoxicity, dose response, cytotoxicity control for non-replicating M. tuberculosis project, secondary assay (AID 492998). It counts as functional, VeroE6. Particulars: Vero C1008.
The target of assay [18] is T3, Microphthalmia-associated transcription factor (Homo sapiens, UniProt O75030).
T3 sequence (O75030 whole entry): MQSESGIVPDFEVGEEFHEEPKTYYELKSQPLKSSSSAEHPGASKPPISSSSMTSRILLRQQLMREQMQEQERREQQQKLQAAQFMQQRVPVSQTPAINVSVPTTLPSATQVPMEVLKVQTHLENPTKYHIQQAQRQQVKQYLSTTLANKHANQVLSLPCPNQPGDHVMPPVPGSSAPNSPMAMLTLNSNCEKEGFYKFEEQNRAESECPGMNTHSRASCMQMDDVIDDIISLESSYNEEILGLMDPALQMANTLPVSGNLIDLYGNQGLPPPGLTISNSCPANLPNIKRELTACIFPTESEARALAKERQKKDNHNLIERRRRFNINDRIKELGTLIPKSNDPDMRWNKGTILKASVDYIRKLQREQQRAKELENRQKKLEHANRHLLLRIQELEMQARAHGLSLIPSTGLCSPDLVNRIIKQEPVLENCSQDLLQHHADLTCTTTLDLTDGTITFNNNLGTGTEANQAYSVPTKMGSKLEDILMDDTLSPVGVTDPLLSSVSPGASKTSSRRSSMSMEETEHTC
The experiment in a line: reducers of TRPM1 reporter luminescence, concentration series – cell-based, SK-MEL-5, cherry-picked, set 3, MITF inhibitor project, dose response (AID 493073).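 Further: SK-MEL-5 melanoma cells with luciferase driven by the MITF target TRPM1 promoter.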 Type of assay: functional.

The nature of assay [19]: cells. It counts as functional.
A short description of assay [20]: T. cruzi infection blockers in NIH3T3 cells – beta-gal luminescence, NIH3T3 host cells, confirmation (AID 2630). Type of assay: functional, cell-based. Conditions: Mus musculus.
The next assay has as its system A-375. The experiment in a line: MITF: Counter assay: A375 proliferation Measured in Cell-Based System Using Plate Reader - 2084-03_Inhibitor_Dose_DryPowder_Activity. [Related pubchem assays (depositor defined):AID488944]. Type of assay: functional. Particulars: Homo sapiens.
Assay [21] can be described thus: cells.
Assay [22] in a line: CCR5-tropic HIV-1 fusion blockers – cell-based, CCR5-tropic Env, dose response (AID 2279). It counts as functional.
The target in assay [23] is T4, Apoptotic protease-activating factor 1 (Homo sapiens, UniProt O14727).
T4 sequence (O14727 whole entry): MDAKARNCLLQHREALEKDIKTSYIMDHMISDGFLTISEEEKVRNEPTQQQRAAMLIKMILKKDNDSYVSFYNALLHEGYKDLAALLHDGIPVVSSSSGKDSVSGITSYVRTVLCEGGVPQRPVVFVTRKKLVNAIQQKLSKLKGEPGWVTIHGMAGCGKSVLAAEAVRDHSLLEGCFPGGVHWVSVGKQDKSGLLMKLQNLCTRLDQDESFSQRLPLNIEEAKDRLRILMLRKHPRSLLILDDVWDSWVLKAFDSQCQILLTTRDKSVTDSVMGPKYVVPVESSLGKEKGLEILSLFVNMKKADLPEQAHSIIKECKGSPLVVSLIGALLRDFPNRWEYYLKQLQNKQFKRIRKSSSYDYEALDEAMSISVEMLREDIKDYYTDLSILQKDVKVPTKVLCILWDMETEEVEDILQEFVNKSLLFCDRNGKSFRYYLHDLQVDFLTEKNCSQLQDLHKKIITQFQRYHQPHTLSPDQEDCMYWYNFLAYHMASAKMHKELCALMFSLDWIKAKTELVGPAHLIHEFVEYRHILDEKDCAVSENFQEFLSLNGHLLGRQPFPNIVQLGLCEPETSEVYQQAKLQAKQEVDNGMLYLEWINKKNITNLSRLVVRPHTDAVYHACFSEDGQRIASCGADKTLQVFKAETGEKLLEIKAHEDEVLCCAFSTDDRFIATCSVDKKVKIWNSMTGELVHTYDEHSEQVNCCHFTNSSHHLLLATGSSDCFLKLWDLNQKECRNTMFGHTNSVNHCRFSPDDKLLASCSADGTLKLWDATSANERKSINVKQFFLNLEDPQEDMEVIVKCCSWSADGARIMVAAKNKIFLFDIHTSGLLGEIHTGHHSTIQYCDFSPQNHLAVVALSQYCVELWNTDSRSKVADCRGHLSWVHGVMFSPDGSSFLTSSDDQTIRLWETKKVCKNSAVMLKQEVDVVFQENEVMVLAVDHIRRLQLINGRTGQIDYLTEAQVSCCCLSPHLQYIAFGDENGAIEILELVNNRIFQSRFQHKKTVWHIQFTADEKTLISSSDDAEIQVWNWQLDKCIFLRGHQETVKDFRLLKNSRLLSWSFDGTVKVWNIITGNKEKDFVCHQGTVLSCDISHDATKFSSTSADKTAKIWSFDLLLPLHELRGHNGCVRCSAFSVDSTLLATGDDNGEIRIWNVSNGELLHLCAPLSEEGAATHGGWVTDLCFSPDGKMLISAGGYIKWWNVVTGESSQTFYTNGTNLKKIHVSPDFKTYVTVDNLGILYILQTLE
The assay is described as follows: activation of Apaf-1 mediated apoptosis – fluorescent, uHTS hits, dose response (AID 588554). It counts as functional.

The target in assay [24] is T5, Calpain-2 catalytic subunit (Sus scrofa, UniProt P43367).
T5 sequence (P43367 whole entry): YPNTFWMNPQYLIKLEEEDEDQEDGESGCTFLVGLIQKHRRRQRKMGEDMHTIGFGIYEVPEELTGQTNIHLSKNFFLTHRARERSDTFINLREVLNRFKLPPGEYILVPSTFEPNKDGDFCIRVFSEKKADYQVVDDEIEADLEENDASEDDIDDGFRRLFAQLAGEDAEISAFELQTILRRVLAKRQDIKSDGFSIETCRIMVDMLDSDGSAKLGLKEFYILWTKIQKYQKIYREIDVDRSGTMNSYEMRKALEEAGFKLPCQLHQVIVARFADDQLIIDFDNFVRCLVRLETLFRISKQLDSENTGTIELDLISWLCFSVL
The experiment in a line: m-calpain protease blockers, concentration series – biochemical, fluorogenic peptide substrate, dose response (AID 1420). Type of assay: functional.

Assay [25] concerns the target Luciferin 4-monooxygenase (Photuris pensylvanica, UniProt Q27757). The assay is described as follows: inhibition of Cell Titer Glo luciferase signal – biochemical, luminescence, cherry-picks, counter-screen for HSF-1 reporter inhibitor project, dose response (AID 588847).

T2 sequence (Q64346 whole entry): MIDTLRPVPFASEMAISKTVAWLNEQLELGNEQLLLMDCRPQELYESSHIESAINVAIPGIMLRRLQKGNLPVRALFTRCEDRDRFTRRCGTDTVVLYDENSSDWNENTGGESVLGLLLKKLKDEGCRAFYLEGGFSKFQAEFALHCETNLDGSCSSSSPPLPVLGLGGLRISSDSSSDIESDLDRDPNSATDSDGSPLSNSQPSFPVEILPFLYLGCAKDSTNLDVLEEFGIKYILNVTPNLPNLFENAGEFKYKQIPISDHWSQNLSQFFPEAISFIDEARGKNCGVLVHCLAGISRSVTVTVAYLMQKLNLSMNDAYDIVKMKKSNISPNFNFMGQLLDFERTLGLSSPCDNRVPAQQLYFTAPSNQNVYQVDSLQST
Chain of ORF 73 (O40947 whole entry): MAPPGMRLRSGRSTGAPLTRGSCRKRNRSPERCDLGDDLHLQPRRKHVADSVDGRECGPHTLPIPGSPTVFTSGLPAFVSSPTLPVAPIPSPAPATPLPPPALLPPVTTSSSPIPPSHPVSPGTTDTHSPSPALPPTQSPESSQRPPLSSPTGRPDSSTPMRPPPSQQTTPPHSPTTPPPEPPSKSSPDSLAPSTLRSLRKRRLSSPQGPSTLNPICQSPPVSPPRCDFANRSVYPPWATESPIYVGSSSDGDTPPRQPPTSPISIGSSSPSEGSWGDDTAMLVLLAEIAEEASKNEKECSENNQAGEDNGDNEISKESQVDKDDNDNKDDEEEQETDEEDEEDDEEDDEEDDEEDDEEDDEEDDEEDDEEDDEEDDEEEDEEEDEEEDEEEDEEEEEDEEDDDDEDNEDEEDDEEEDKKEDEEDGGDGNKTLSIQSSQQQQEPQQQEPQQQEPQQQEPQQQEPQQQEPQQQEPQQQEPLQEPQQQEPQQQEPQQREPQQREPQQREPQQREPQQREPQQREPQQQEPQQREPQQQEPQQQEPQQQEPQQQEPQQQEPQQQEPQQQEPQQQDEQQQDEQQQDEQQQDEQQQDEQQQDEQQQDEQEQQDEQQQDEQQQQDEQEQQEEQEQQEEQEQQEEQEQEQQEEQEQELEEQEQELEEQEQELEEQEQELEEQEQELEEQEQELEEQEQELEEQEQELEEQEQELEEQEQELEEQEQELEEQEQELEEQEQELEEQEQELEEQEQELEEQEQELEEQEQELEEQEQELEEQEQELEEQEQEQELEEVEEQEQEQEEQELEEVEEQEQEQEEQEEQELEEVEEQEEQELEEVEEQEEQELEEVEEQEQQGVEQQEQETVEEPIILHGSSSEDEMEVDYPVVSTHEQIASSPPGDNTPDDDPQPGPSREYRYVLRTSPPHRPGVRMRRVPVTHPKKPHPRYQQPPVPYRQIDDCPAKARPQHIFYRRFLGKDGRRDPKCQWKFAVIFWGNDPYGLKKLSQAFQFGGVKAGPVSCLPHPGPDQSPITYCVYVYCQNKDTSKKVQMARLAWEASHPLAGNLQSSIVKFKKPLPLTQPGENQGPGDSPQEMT
Chain of Glyceraldehyde-3-phosphate dehydrogenase (P04406 whole entry): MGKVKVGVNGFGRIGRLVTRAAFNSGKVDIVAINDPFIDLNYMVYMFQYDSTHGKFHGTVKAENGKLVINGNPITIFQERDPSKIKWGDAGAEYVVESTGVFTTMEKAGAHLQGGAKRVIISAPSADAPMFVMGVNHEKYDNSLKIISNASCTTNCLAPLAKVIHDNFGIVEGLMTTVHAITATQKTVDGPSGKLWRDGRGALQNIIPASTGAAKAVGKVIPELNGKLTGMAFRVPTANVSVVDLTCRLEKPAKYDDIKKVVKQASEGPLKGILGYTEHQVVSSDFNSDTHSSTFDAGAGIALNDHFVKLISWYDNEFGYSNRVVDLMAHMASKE
Chain of Keap1/Nrf2 (Q16236 whole entry): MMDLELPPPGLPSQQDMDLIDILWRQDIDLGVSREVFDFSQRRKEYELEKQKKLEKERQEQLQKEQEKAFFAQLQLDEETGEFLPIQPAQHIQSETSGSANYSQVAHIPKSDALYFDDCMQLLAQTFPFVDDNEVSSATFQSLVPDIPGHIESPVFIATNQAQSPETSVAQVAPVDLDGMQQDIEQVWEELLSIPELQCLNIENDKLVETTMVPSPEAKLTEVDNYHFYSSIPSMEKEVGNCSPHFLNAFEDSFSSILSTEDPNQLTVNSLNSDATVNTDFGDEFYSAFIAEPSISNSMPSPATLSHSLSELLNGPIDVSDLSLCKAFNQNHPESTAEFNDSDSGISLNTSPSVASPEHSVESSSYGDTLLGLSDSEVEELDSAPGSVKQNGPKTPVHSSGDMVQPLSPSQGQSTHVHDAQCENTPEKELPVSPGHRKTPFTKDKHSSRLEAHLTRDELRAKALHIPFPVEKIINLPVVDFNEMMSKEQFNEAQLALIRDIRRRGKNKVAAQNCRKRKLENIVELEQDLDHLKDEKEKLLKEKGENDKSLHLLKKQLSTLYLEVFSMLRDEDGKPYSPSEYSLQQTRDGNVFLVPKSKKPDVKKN
Chain of Keap1/Nrf2 (Q14145 whole entry): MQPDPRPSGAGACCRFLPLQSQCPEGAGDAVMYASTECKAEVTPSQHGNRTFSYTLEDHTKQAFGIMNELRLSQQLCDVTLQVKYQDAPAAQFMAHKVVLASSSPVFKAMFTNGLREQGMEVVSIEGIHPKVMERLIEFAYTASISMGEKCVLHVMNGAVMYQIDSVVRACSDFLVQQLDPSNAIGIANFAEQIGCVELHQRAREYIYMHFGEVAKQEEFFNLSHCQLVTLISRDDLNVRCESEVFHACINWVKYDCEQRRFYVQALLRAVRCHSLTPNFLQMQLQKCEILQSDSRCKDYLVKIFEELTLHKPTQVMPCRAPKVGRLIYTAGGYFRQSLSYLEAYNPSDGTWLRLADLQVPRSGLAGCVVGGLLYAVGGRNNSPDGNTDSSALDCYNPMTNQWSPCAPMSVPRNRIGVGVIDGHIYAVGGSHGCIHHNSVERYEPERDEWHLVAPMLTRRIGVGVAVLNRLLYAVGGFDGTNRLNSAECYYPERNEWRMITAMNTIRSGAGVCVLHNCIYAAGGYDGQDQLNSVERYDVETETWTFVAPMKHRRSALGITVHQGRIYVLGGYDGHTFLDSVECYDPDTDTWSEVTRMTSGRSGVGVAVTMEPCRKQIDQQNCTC
Chain of Luciferin 4-monooxygenase (Q27757 whole entry): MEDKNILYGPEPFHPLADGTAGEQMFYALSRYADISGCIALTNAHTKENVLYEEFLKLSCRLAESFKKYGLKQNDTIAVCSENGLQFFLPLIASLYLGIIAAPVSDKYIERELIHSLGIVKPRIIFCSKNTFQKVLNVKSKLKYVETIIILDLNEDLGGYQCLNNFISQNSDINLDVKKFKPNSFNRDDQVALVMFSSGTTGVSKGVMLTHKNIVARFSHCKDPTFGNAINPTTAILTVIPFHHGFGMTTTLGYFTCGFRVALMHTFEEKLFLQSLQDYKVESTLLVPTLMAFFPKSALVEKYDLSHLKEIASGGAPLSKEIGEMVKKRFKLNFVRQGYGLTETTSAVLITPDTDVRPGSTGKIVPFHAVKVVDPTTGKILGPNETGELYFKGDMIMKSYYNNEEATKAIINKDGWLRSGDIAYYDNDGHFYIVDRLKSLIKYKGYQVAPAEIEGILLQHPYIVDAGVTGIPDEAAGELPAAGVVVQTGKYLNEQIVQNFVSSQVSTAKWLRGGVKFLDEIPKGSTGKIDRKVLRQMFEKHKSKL

The IC50 is the concentration that gives 50% inhibition. As for `CCCCCCCCC#CC#CCCCC(=O)O`, the 50% inhibitory concentration (IC50) in [1] is 96.2 µM (not active); in assay [2], > 100 µM (not active); in assay [3] it was > 100 µM (inactive); in assay [4], > 100 µM (inactive).
A word on the EC50: it is the concentration giving half of the maximal effect. A word on the AC50: it is the concentration giving half of the maximal activity seen. On to `CN1/C(=C\C(=O)COc2ccc3c(c2)OCO3)C(C)(C)c2ccccc21`, for which the IC50 in assay [5] is 1.48 µM (active); in assay [6] it was 0.768 µM (active). In addition, the EC50 in [7] was 2.75 µM (active); in assay [8], > 60 µM (not active). In addition, the concentration at half-maximal activity (AC50) in assay [9] is 4.1 µM (active); in assay [10] it was 23.4 µM (active).
On to `COc1ccc2cc3cc(C(=O)NCCN4CCN(Cc5ccccc5)CC4)oc3nc2c1`, for which the AC50 in assay [11] was 1.51 µM (active).
Consider `CCOc1ccc(S(=O)(=O)Nc2cc(Cl)ccc2O)cc1`, for which the AC50 in the assay on Escherichia coli is 53.7 µM (active).
Turning to `CCc1ccc[n+](-c2[n-]c(=O)sc2C=NNC(=S)Nc2ccccc2)c1`, the concentration at half-maximal activity (AC50) on ORF 73 was 10.1 µM (active); at Keap1/Nrf2 it was 13.6 µM (active).
As for `O=C(NC12CC3CC(CC(C3)C1)C2)N(Cc1ccccc1)Cc1ccncc1`, the EC50 with HEK293 [12] and in the assay with HEK293 [13] was > 59.6 µM (inactive) each time.
By CC50 is commonly meant the concentration giving 50% cytotoxicity. On to `O=C(CNc1cccc([N+](=O)[O-])c1)N/N=C/c1ccc([N+](=O)[O-])o1`, for which the concentration for a half-maximal effect (EC50) in assay [7] was < 0.1 µM (active); in [8] it was > 60 µM (not active); in assay [20], 0.0205 µM (active); in “cells [21]”, 0.055 µM (active). For the same molecule, the CC50 in assay [14] was 14.1 µM (active); in [15], 10.1 µM (active); in [17], 11.6 µM (active). The AC50 was 35.6 µM (active) in [16], 0.061 µM (active) in the assay with Trypanosoma cruzi, 8.63 µM (active) in assay [18] and 41.8 µM (active) in the assay with A-375. Further, the IC50 in “cells [19]” was 5.42 µM (active).
Turning to `O=C(N/N=C/c1cc(Cl)cc([N+](=O)[O-])c1O)NC12CC3CC(CC(C3)C1)C2`, the IC50 in assay [22] was 40 µM (active). Also, the AC50 in [9] was 5.03 µM (active). Besides, the EC50 in assay [23] is 6.87 µM (active).
For `Cc1nn(-c2cccc(C(F)(F)F)c2)c(Cl)c1/C=N/Nc1cccc(C(=O)O)c1`, the IC50 in [24] was 11.4 µM (not active). In [25], the AC50 was > 52 µM (inactive).
